Experimental data: patent US20060154990A1, “Use of MEK inhibitors in treating abnormal cell growth” (AGOURON PHARMACEUTICALS, INC., priority 2004, published 2006)
“And” between values parts separate entries of the source, which are not always exact repeats. Equal entries are not always repeated.

Key:
[1] = Metabolites of [14C] Compound 1 in liver microsomes; assay type: in vitro ADME, rat; details: [C-14] Compound 1 10 μM, 90 mins
Method: Incubations were performed in hepatocytes for 3 hours and liver microsomes for 1.5 hours and were stopped with the addition of methanol. HPLC, in conjuction with ionspray 3D iontrap mass spectrometry, and simultaneous radioactive monitoring were used to detect and identify the resulting metabolites.
This acid cleavage product is further metabolized to form hydroxylated (M 11, 16% in rat) and hydroxylated, defluorinated products (M 17, 19% in rat).

panel of 27 kinases = assay: Specificity against a panel of 27 kinases; details: 10 μM
pERK in tumor biopsies = assay: Immunohistochemical analysis of pERK in paired tumor biopsies; details: for pERK Post-Treatment: H-score
[2] = Pilot food effect assessment of plasma pharmacokinetics; details: for AUC(0-24) Change % / Cmax Change %: fed versus fasted; for Cmax / Tmax / AUC(0-t): human, plasma, oral
[3] = Plasma concentrations associated with antitumor efficacy in mice; assay type: in vivo; details: mouse, oral, C26 and ZR-75-1 tumor models in mice
[4] = test system: ERK phosphorylation in tumor cells; assay: ERK phosphorylation in tumor cells grown in culture with 10% serum; assay type: cell-based; details: read-out: IC50, reducing ERK phosphorylation
[5] = test system: advanced cancer (breast, colon, NSCLC, melanoma); assay: Phase 1/2 clinical study: tumor response (RECIST); details: for Clinical Response: individual patient
[6] = 1 mg BID, melanoma, individual patients
[7] = 1 mg QD, breast, individual patient
[8] = 1 mg QD, melanoma, individual patients
[9] = 2 mg BID, colon, individual patient
[10] = 2 mg BID, lung, individual patient
[11] = 2 mg BID, melanoma, individual patients
[12] = 4 mg BID, lung, individual patient
[13] = 4 mg BID, melanoma, individual patient
[14] = 8 mg BID, breast, individual patient
[15] = 15 mg BID, breast, individual patient
[16] = 15 mg BID, melanoma, individual patient
[17] = 20 mg BID continuous, melanoma, individual patients
[18] = 20 mg BID, melanoma, individual patient
[19] = 30 mg BID, colon, individual patient
[20] = 30 mg BID, melanoma, individual patients

O=C(NOC[C@H](O)CO)c1ccc(F)c(F)c1Nc1ccc(I)cc1F [Compound 1, N-[(R)-2,3-dihydroxy-propoxy]-3,4-difluoro-2-(2-fluoro-4-iodo-phenylamino)-benzamide]
% ROI Rat [1]: 52.30% | inhibition of panel of 27 kinases (panel of 27 kinases): completely refractory to inhibition | pERK % Reduction from Baseline (pERK in tumor biopsies; [6]): −65% and 0% | pERK % Reduction from Baseline (pERK in tumor biopsies; [7]): −4% | pERK % Reduction from Baseline (pERK in tumor biopsies; [8]): −93% and 0% | pERK % Reduction from Baseline (pERK in tumor biopsies; [9]): 0% | pERK % Reduction from Baseline (pERK in tumor biopsies; [10]): −95% | pERK % Reduction from Baseline (pERK in tumor biopsies; [11]): −97% and −100% | pERK % Reduction from Baseline (pERK in tumor biopsies; [12]): −100% | pERK % Reduction from Baseline (pERK in tumor biopsies; [13]): −70% | pERK % Reduction from Baseline (pERK in tumor biopsies; [14]): −93% | pERK % Reduction from Baseline (pERK in tumor biopsies; [15]): −9% | pERK % Reduction from Baseline (pERK in tumor biopsies; [16]): −100% | pERK % Reduction from Baseline (pERK in tumor biopsies; [17]): −100% and −72% and −18% | pERK % Reduction from Baseline (pERK in tumor biopsies; [18]): −100% | pERK % Reduction from Baseline (pERK in tumor biopsies; [19]): −91% | pERK % Reduction from Baseline (pERK in tumor biopsies; [20]): −4% and −87% | pERK Post-Treatment (pERK in tumor biopsies; [6]): 45 and 40 | pERK Post-Treatment (pERK in tumor biopsies; [7]): 135 | pERK Post-Treatment (pERK in tumor biopsies; [8]): 3 and 78 | pERK Post-Treatment (pERK in tumor biopsies; [9]): 12 | pERK Post-Treatment (pERK in tumor biopsies; [10]): 8 | pERK Post-Treatment (pERK in tumor biopsies; [11]): 10 and 0 | pERK Post-Treatment (pERK in tumor biopsies; [12]): 0 | pERK Post-Treatment (pERK in tumor biopsies; [13]): 50 | pERK Post-Treatment (pERK in tumor biopsies; [14]): 5 | pERK Post-Treatment (pERK in tumor biopsies; [15]): 150 | pERK Post-Treatment (pERK in tumor biopsies; [16]): 0 | pERK Post-Treatment (pERK in tumor biopsies; [17]): 0 and 23 and 45 | pERK Post-Treatment (pERK in tumor biopsies; [18]): 1 | pERK Post-Treatment (pERK in tumor biopsies; [19]): 3 | pERK Post-Treatment (pERK in tumor biopsies; [20]): 70 and 15 | AUC(0-24) Change % ([2]; 1 mg BID, individual patients): −76% and 390% | Cmax Change % ([2]; 1 mg BID, individual patients): −82% and 161% | AUC(0-24) Fasted ([2]; 1 mg BID, individual patients): 998 ng·h/mL and 133 ng·h/mL | AUC(0-24) Fed ([2]; 1 mg BID, individual patients): 244 ng·h/mL and 652 ng·h/mL | Cmax Fasted ([2]; 1 mg BID, individual patients): 181 ng/mL and 21.6 ng/mL | Cmax Fed ([2]; 1 mg BID, individual patients): 56.4 ng/mL | AUC(0-24) Change % ([2]; 2 mg BID, individual patients): −38% and 138% and 74% and 1% | Cmax Change % ([2]; 2 mg BID, individual patients): −62% and −29% and −28% and −36% | AUC(0-24) Fasted ([2]; 2 mg BID, individual patients): 874 ng·h/mL and 526 ng·h/mL and 454 ng·h/mL | AUC(0-24) Fed ([2]; 2 mg BID, individual patients): 369 ng·h/mL and 2080 ng·h/mL and 914 ng·h/mL and 456 ng·h/mL | Cmax Fasted ([2]; 2 mg BID, individual patients): 77.5 ng/mL and 173 ng/mL and 71.9 ng/mL and 88.7 ng/mL | Cmax Fed ([2]; 2 mg BID, individual patients): 29.5 ng/mL and 122 ng/mL and 52.1 ng/mL and 56.7 ng/mL | Tmax Fed ([2]; 2 mg BID, individual patients): 8 h | AUC(0-24) Change % ([2]; 4 mg BID, individual patients): −7% and −20% and −18% (2×) | Cmax Change % ([2]; 4 mg BID, individual patients): −25% and −49% (2×) and −57% | AUC(0-24) Fasted ([2]; 4 mg BID, individual patients): 1060 ng·h/mL and 721 ng·h/mL and 919 ng·h/mL | AUC(0-24) Fed ([2]; 4 mg BID, individual patients): 849 ng·h/mL and 590 ng·h/mL and 754 ng·h/mL | Cmax Fasted ([2]; 4 mg BID, individual patients): 65.5 ng/mL and 157 ng/mL and 114 ng/mL | Cmax Fed ([2]; 4 mg BID, individual patients): 80.7 ng/mL and 58.4 ng/mL and 68.0 ng/mL | Tmax Fasted ([2]; 4 mg BID, individual patients): 1 h | AUC(0-24) Change % ([2]; 15 mg BID, individual patients): −14% and −67% and −27% | Cmax Change % ([2]; 15 mg BID, individual patients): −59% and −80% and −50% | AUC(0-24) Fasted ([2]; 15 mg BID, individual patients): 2880 ng·h/mL and 4880 ng·h/mL | AUC(0-24) Fed ([2]; 15 mg BID, individual patients): 4700 ng·h/mL and 957 ng·h/mL and 3580 ng·h/mL | Cmax Fasted ([2]; 15 mg BID, individual patients): 1120 ng/mL and 464 ng/mL and 641 ng/mL | Cmax Fed ([2]; 15 mg BID, individual patients): 459 ng/mL and 92.0 ng/mL and 319 ng/mL | AUC(0-24) Change % ([2]; 20 mg BID, individual patients): −6% and −2% and −15% | Cmax Change % ([2]; 20 mg BID, individual patients): −57% and −32% and −34% | AUC(0-24) Fasted ([2]; 20 mg BID, individual patients): 4340 ng·h/mL and 6820 ng·h/mL and 3360 ng·h/mL | AUC(0-24) Fed ([2]; 20 mg BID, individual patients): 4060 ng·h/mL and 6700 ng·h/mL and 2860 ng·h/mL | Cmax Fasted ([2]; 20 mg BID, individual patients): 1180 ng/mL and 596 ng/mL | Cmax Fed ([2]; 20 mg BID, individual patients): 358 ng/mL and 797 ng/mL and 393 ng/mL | coefficient of variation (CV) for AUC(0-24) ([2]; fed state): 78% | Cmax ([2]; 1 mg, Cmax Fed, 1 mg BID, individual patients): 33.4 ng/mL | Tmax ([2]; 1 mg, Tmax Fasted, 1 mg BID, individual patients): 1 h | Tmax ([2]; 1 mg, Tmax Fed, 1 mg BID, individual patients): 3 h | AUC(0-t) ([2]; 2 mg, AUC(0-24) Fasted, 2 mg BID, individual patients): 594 ng·h/mL | Tmax ([2]; 2 mg, Tmax Fasted, 2 mg BID, individual patients): 1 h | Tmax ([2]; 2 mg, Tmax Fed, 2 mg BID, individual patients): 6 h | AUC(0-t) ([2]; 4 mg, AUC(0-24) Fasted, 4 mg BID, individual patients): 705 ng·h/mL | AUC(0-t) ([2]; 4 mg, AUC(0-24) Fed, 4 mg BID, individual patients): 654 ng·h/mL | Cmax ([2]; 4 mg, Cmax Fed, 4 mg BID, individual patients): 49.1 ng/mL | Tmax ([2]; 4 mg, Tmax Fed, 4 mg BID, individual patients): 6 h | AUC(0-t) ([2]; 15 mg, AUC(0-24) Fasted, 15 mg BID, individual patients): 5460 ng·h/mL | Tmax ([2]; 15 mg, Tmax Fasted, 15 mg BID, individual patients): 1 h | Tmax ([2]; 15 mg, Tmax Fed, 15 mg BID, individual patients): 4 h | Cmax ([2]; 20 mg, Cmax Fasted, 20 mg BID, individual patients): 839 ng/mL | Tmax ([2]; 20 mg, Tmax Fasted, 20 mg BID, individual patients): 1 h | Tmax ([2]; 20 mg, Tmax Fed, 20 mg BID, individual patients): 4 h | delay of peak plasma levels ([2]; taken with a high fat meal): 2 to 7 h | AUC(0-t) ([3]; read-out: lowest plasma AUC(0-24) associated with meaningful in vivo antitumor efficacy): 1180 to 1880 ng·h/mL | Cmax ([3]; read-out: lowest plasma Cmax associated with meaningful in vivo antitumor efficacy): 260 to 428 ng/mL | IC50 [4]: 0.59 nM | Clinical Response ([5]; 2 mg BID, colon, cell wraps: stable disease): stable | Clinical Response ([5]; 2 mg BID, melanoma, cell wraps: stable disease): stable | Clinical Response ([5]; 4 mg BID, lung, cell wraps: stable disease): stable | Clinical Response ([5]; 4 mg BID, melanoma, cell wraps: stable disease): stable | Clinical Response ([5]; 15 mg BID, breast, cell wraps: stable disease): stable | Clinical Response ([5]; 20 mg BID continuous, melanoma, cell wraps: stable disease): stable | Clinical Response ([5]; 20 mg BID, melanoma, cell wraps: partial response): partial | Clinical Response ([5]; 30 mg BID, melanoma, cell wraps: stable disease): stable | Patients with stable disease ([5]; of 42 patients treated): 10 | Partial responses ([5]; of 42 patients treated, melanoma): 2
